Test results taken from patent US20030114445A1, “N3-substituted 6-anilinopyrimidines and methods to treat-Gram-positive bacterial and mycoplasmal infections” (priority 2001, published 2003).
Converted amounts (≈) assume the structure as drawn. Where two headings read alike, the source gives them in different places.

How the values were obtained:
B.subtilis pol IIIC = B.subtilis pol IIIC (Bacillus subtilis, UniProt P13267); assay: biochemical
Method: DNA pol activity was assayed as described in Barnes et al., Nuc. Acids Res., 6:1203-19 (1979), using activated “nicked” calf-thymus DNA as template primer, 10 pM [^3H-methyl]-dTTP as the labelled dNTP substrate, and dATP, dCTP, and dGTP at 25 μM each.
Inhibitory activity of the compounds is determined by measuring the ability of the agent to inhibit enzyme-catalyzed incorporation of [^3H]-dTMP into nicked calf thymus DNA in the absence of the competitor dGTP or dATP (“truncated assay”) (see G. E. Wright and N. C. Brown, Inhibition of Bacillus subtilis DNA Polymerase III by Arylhydrazinopyrimidines: Novel Properties of 2-Thiouracil Derivatives, Biochim. Biophys. Acta 432:37-48 (1976)). Purified pol IIIC is added to a buffered solution containing Mg^2+, DTT, glycerol, nicked calf thymus DNA, saturating concentrations of dATP, dCTP, dTTP and [^3H]-dTTP. Reaction mixtures are incubated at 30° C. for 10 minutes, quenched and filtered, and radioactivity in the acid-insoluble material measured by scintillation counting. Experiments are done in triplicate. Inhibitors are assayed by addition of several dilutions of a stock solution of inhibitor (DMSO or water, depending on solubility) before enzyme addition. […] The truncated assay, i.e. exclusion of the competitive substrate dGTP or dATP, depending upon whether the compound is a uracil derivative or an isocytosine derivative, respectively, allows for the direct determination of apparent inhibitor constants (K,) in this assay system.

B. subtilis = assay: Inhibition of bacterial growth on agar plates (MIC); type: cell-based; conditions: Bacillus subtilis, 37° C., 24 hours
Method: (§1) Each compound is assayed against a panel of Bacillus, Enterococcus and Staphylococcus, and a Gram-negative bacterium Escherichia coli as negative control, grown in appropriate plate media solidified with 1.3% agar-agar. Stock solutions of the compounds in dimethylsulfoxide or water, depending on solubility, are added to sterile medium at a temperature of 60° C. […] One tenth mL of diluted bacteria containing 500-1000 colony-forming units (CFU) are plated and spread, and the plates incubated at 37° C. for 24 hours. MIC (minimum inhibitory concentration) is equivalent to the lowest concentration at which growth, i.e. colony formation, is not observed.

E. fecalis = assay: as above; type: cell-based; conditions: 37° C., 24 hours
Method: as §1

E. fecium = assay: as above; type: cell-based; conditions: 37° C., 24 hours
Method: as §1

S.aureus (Smith) = assay: as above; type: cell-based; conditions: Staphylococcus aureus, 37° C., 24 hours
Method: as §1

[1] = truncated assay, apparent inhibitor constant, read-out: K1 B.subtilis pol IIIC

B.subtilis pol IIIC, sequence (P13267 whole entry): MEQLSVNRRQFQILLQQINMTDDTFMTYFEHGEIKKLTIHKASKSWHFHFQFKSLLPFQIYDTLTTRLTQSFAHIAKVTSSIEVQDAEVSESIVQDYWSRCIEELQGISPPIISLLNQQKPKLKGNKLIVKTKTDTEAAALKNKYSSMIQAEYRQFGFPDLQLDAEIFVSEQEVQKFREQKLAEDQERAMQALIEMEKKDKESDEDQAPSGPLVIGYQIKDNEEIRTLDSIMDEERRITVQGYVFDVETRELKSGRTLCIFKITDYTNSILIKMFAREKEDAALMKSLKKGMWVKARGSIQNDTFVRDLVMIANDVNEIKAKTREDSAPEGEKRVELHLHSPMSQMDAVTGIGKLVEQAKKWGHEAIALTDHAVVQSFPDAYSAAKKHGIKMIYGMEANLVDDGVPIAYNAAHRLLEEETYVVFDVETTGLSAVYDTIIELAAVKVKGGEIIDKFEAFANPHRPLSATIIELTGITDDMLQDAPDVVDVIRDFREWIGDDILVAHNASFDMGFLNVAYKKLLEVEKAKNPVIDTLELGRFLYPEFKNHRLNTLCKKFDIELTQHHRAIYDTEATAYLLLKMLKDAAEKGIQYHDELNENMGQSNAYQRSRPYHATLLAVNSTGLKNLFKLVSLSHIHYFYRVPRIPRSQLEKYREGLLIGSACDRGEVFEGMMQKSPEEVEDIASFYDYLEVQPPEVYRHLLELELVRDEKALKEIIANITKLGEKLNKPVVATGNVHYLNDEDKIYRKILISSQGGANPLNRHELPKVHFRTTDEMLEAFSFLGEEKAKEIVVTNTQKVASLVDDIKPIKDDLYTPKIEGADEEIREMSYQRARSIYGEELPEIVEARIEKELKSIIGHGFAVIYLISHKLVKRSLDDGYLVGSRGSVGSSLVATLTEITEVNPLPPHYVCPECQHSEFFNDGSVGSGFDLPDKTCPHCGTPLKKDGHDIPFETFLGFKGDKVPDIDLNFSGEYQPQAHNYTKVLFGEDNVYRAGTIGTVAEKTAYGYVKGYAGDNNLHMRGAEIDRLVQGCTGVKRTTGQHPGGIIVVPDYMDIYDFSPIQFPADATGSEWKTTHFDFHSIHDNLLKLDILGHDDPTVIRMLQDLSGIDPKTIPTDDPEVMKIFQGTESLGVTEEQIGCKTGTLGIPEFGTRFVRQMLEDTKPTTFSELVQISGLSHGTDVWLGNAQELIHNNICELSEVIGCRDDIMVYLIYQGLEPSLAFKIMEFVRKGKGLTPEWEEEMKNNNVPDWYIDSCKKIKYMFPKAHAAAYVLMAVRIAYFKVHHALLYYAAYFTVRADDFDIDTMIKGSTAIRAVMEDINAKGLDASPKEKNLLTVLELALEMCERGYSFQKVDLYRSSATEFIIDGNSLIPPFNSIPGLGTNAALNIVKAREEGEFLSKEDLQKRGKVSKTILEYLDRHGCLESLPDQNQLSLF

| SMILES | Ki (B.subtilis pol IIIC) | MIC (B. subtilis) | MIC (E. fecalis) | MIC (E. fecium) | MIC (S.aureus (Smith)) | Ki (B.subtilis pol IIIC; [1]) |
| --- | --- | --- | --- | --- | --- | --- |
| CCOC(=O)CCCn1c(=O)cc(Nc2ccc(C)c(CC)c2)[nH]c1=O [Compound 10, 3-[3-(Ethoxycarbonyl)propyl]-6-(3-ethyl-4-methylanilino)uracil] | 100 nM | < 1.25 µg/mL | 5 µg/mL (≈ 13.9 µM) | 2.5 µg/mL (≈ 6.96 µM) | 2.5 µg/mL (≈ 6.96 µM) |  |
| CCc1cc(Nc2cc(=O)n(CCCCOC(=O)CCl)c(=O)[nH]2)ccc1C [Compound 51, 3-[4-(2-chloroacetoxy)butyl]-6-(3-ethyl-4-methylanilino)uracil] | 40 nM | 0.313 µg/mL (≈ 0.795 µM) | 2.5 µg/mL (≈ 6.35 µM) | 5 µg/mL (≈ 12.7 µM) | 10 µg/mL (≈ 25.4 µM) |  |
| CCCCC1(O)CCN(CCCCCn2c(=O)cc(Nc3ccc(C)c(CC)c3)[nH]c2=O)CC1 [Compound 71, 3-{5-[1-(4-hydroxy-4-butylpiperidinyl)]pentyl}-6-(3-ethyl-4-methylanilino)uracil] | 2100 nM | 5 µg/mL (≈ 10.6 µM) | 10 µg/mL (≈ 21.2 µM) | 10 µg/mL (≈ 21.2 µM) | 10 µg/mL (≈ 21.2 µM) |  |
| CCc1cc(Nc2cc(=O)n(CCCCNS(=O)(=O)c3cccs3)c(=O)[nH]2)ccc1C [Compound 48, 3-[4-(2-thienylsulfonylamino)butyl]-6-(3-ethyl-4-methylanilino)uracil] | 75 nM | 2.5 µg/mL (≈ 5.4 µM) | 5 µg/mL (≈ 10.8 µM) | 2.5 µg/mL (≈ 5.4 µM) | 5 µg/mL (≈ 10.8 µM) |  |
| CCc1cc(Nc2cc(=O)n(CCCCN3CCN(c4ccc(C(F)(F)F)cc4[N+](=O)[O-])CC3)c(=O)[nH]2)ccc1C [Compound 64, 3-{4-[4-(2-nitro-4-trifluoromethylphenyl)-1-piperazinyl]butyl}-6-(3-ethyl-4-methylanilino)uracil] | 58800 nM | 80 µg/mL (≈ 139 µM) | 80 µg/mL (≈ 139 µM) | 80 µg/mL (≈ 139 µM) | 80 µg/mL (≈ 139 µM) |  |
| CCc1cc(Nc2cc(=O)n(CCCCO)c(=O)[nH]2)ccc1C [HB-EMAU, 3-(4-hydroxybutyl)-6-(3-ethyl-4-methylanilino)uracil, reference compound] | 70 nM | < 1.25 µg/mL | 5 µg/mL (≈ 15.8 µM) | 5 µg/mL (≈ 15.8 µM) | 5 µg/mL (≈ 15.8 µM) |  |
| CCc1cc(Nc2cc(=O)n(CC(=O)N(CC)CC)c(=O)[nH]2)ccc1C [Compound 11, 3-[(N,N-Diethylaminocarbonyl)methyl]-6-(3-ethyl-4-methylanilino)uracil] | 450 nM | 2.5 µg/mL (≈ 6.97 µM) | 20 µg/mL (≈ 55.8 µM) | 20 µg/mL (≈ 55.8 µM) | 10 µg/mL (≈ 27.9 µM) |  |
| CCc1cc(Nc2cc(=O)n(CCCCN3CCC(O)(c4ccc(Cl)cc4)CC3)c(=O)[nH]2)ccc1C [Compound 38, 3{[4-(4-Chlorophenyl)-4-hydroxypiperidino]butyl}-6-(3-ethyl-4-methylanilino)uracil] |  | 5 µg/mL (≈ 9.78 µM) | 5 µg/mL (≈ 9.78 µM) | 5 µg/mL (≈ 9.78 µM) | 5 µg/mL (≈ 9.78 µM) | 25 nM |
| CCc1cc(Nc2cc(=O)n(CC(C)CO)c(=O)[nH]2)ccc1C (stereo not drawn) [Compound 25, 3-(3-Hydroxy-2-methylpropyl)-6-(3-ethyl-4-methylanilino)uracil] | 110 nM | < 1.25 µg/mL | 5 µg/mL (≈ 15.8 µM) | 2.5 µg/mL (≈ 7.88 µM) | 5 µg/mL (≈ 15.8 µM) |  |
| CCc1cc(Nc2cc(=O)n(CCCCN3CC=C(c4ccc(F)c(C)c4)CC3)c(=O)[nH]2)ccc1C [Compound 82] | 29 nM | 10 µg/mL (≈ 20.4 µM) | 20 µg/mL (≈ 40.8 µM) | 20 µg/mL (≈ 40.8 µM) | 20 µg/mL (≈ 40.8 µM) |  |
| CCc1cc(Nc2cc(=O)n(CCCCN3CCN(c4ccc(F)cc4)CC3)c(=O)[nH]2)ccc1C [Compound 46, 3-{4-[(4-fluorophenyl)piperazinyl]butyl}-6-(3-ethyl-4-methyylanilino)uracil] |  | 5 µg/mL (≈ 10.4 µM) | 10 µg/mL (≈ 20.9 µM) | 5 µg/mL (≈ 10.4 µM) | 20 µg/mL (≈ 41.7 µM) | 70 nM |
| CCc1cc(Nc2cc(=O)n(CCCCN3CCN(c4nc(C)cc(C(=O)O)n4)CC3)c(=O)[nH]2)ccc1C [Compound 60, 3-{4-[4-(6-methyl-4-carboxy-2-pyrimidinyl)-1-piperazinyl]butyl}-6-(3-ethyl-4-methylanilino)uracil] | 16 nM | 40 µg/mL (≈ 76.7 µM) | 40 µg/mL (≈ 76.7 µM) | 40 µg/mL (≈ 76.7 µM) | 40 µg/mL (≈ 76.7 µM) |  |
